In article PMC12441834, “Highly Potent and Subtype-Selective Sperm-Specific Potassium Channel SLO3 Inhibitors Display High Tissue Exposure in the Murine Female Reproductive Tract” (ACS Pharmacology & Translational Science, 2025):

Legend:
human SLO3 = molecular target: T1, human SLO3 (Homo sapiens, UniProt A8MYU2); assay: SLO3 patch-clamp electrophysiology, human SLO3-γ2 expressed in HEK293 cells; type: cell-based; settings: for IC50: transfected HEK293 cells (human SLO3-γ2), whole-cell patch clamp, currents at +100 mV, read-out: hSLO3 IC50; for inhibition at 10 µM: HEK293, read-out: HEK hSLO3 % of inhib. at 10 μM
T1 construct: expressed in transfected cells
T1 sequence (A8MYU2 1-1149): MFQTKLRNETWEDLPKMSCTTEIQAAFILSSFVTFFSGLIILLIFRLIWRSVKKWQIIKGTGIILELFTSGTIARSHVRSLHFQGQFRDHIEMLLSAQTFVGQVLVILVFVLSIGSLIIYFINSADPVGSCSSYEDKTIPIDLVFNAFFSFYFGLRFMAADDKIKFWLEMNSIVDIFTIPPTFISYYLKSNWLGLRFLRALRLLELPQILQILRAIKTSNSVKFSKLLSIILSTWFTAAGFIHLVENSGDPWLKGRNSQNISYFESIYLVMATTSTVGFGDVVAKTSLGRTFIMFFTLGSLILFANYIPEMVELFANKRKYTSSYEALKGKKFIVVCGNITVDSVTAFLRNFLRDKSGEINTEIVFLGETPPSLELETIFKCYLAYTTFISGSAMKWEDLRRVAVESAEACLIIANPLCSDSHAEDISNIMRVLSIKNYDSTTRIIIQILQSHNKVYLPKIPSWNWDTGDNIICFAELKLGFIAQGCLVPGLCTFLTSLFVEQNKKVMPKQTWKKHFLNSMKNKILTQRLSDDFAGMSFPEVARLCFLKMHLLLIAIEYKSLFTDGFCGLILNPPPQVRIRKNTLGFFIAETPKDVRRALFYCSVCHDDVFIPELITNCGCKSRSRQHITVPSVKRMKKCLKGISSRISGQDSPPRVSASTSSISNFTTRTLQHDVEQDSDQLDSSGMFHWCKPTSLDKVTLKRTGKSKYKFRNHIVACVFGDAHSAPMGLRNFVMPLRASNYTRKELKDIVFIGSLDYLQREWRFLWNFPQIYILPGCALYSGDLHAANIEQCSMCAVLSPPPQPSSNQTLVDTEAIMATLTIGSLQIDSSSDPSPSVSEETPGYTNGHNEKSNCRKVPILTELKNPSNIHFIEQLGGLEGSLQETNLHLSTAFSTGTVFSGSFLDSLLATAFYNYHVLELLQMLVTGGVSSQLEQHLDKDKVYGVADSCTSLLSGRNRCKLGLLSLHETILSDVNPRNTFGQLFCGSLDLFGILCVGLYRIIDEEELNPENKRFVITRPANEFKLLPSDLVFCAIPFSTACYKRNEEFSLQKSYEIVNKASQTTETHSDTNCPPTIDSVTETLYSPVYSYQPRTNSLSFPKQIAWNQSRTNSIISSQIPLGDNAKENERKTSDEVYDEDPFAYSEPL
T1 sequence (Q8N7C0 24-313 partner): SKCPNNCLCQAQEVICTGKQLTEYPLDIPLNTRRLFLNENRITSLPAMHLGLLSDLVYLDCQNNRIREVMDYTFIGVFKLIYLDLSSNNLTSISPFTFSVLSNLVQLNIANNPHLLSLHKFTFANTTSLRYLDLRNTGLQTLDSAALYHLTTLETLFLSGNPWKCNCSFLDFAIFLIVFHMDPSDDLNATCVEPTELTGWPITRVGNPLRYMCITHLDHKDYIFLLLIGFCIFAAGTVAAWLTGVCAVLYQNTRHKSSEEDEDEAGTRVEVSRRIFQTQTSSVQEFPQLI
Protocol: (§1) HEK293 cells were transfected with the bicistronic vector pBUD-CE4.1 containing the genes of interest and a gene conferring antibiotic resistance. Cells were exposed to gradients of selection antibiotics, and optimal growth conditions for the stable lines were as follows: SLO3 and γ2 (SLO3-γ2) supplemented with 700 μg/mL Zeocin (Invitrogen); human SLO1 and β1 (SLO1-β1) with 1 mg/mL G418 (Sigma) and 3 μg/mL puromycin (Corning, Thermo Fisher); and human SLO1 and β4 (SLO1-β4) with 250 μg/mL Zeocin and 3 μg/mL puromycin. All cell lines were grown in Dulbecco’s Modified Eagle Medium (Gibco, Thermo Fisher) supplemented with 10% fetal bovine serum, 1% penicillin–streptomycin (Millipore Sigma), and selection antibiotics. To generate cells expressing SLO1 and γ2, stable SLO1-expressing HEK293 cells were transiently transfected with expression vectors for γ2 and green fluorescent protein (GFP) in the presence of lipofectamine (Invitrogen) for 5 h.
(§2) The cells were then washed and incubated in supplemented Dulbecco’s Modified Eagle Medium for 48 h before use. Patch-clamp electrophysiology was performed only on cells expressing GFP.
(§3) Currents in HEK293 cells were measured in the whole-cell patch-clamp configuration with an Axopatch 200B amplifier, digitized with a Digidata 1440A, and interfaced with Clampex 10.6.0.13 (Molecular Devices). […] An isolated cell was located on an Axiovert 200 microscope (Zeiss), and a gigaohm seal was formed with a borosilicate pipette with resistance between 3 and 6 MΩ and filled with internal solution (140 mM KMeSO3, 10 mM HEPES, 10 mM MES, 1 mM EGTA, pH 7). The seal was then broken by applying a negative pressure. Cells were kept at a holding potential of −60 mV for 50 ms, tested with a stepped voltage protocol from −80 to +150 mV in 10 mV increments for 100 ms, and then dropped to −40 mV for 50 ms with 2.5 s between sweeps. This protocol was used to record currents present with increasing concentration of our compound of interest or 3 μL/mL vehicle (DMSO) in the bath solution. Individual cells were tested with between 1 and 5 concentrations of the compound of interest or until the patch was lost. Currents were allowed to stabilize before the initial recording and after the perfusion solution was changed before recording.
Data were analyzed with a pClamp 10.6 (Molecular Devices). VU6047606 and VU6032735 inhibition dose–response relationships were fit by the Hill equation in OriginPro 7.5 (OriginLab Corporation): R=1/1+(C/IC50)^n+Ioff , in which R is fractional unblock, C is compound concentration, IC50 is the half inhibition concentration, n is the Hill coefficient, and I off is an offset item for leak current. Error bars in the figures represent the SDs. Each data point is averaged from at least 5 measurements. Curve-fitting results are reported as the fitted values with standard error, which was estimated by OriginPro according to the Error Propagation formula.

hSLO1 = molecular target: T2, hSLO1 (Homo sapiens, UniProt Q12791); assay: SLO1 inhibition in HEK cells; type: cell-based
T2 construct: expressed in transfected cells; host or cells: HEK293
Protocol: as §1, §2, §3

T2 sequence (Q12791 whole entry): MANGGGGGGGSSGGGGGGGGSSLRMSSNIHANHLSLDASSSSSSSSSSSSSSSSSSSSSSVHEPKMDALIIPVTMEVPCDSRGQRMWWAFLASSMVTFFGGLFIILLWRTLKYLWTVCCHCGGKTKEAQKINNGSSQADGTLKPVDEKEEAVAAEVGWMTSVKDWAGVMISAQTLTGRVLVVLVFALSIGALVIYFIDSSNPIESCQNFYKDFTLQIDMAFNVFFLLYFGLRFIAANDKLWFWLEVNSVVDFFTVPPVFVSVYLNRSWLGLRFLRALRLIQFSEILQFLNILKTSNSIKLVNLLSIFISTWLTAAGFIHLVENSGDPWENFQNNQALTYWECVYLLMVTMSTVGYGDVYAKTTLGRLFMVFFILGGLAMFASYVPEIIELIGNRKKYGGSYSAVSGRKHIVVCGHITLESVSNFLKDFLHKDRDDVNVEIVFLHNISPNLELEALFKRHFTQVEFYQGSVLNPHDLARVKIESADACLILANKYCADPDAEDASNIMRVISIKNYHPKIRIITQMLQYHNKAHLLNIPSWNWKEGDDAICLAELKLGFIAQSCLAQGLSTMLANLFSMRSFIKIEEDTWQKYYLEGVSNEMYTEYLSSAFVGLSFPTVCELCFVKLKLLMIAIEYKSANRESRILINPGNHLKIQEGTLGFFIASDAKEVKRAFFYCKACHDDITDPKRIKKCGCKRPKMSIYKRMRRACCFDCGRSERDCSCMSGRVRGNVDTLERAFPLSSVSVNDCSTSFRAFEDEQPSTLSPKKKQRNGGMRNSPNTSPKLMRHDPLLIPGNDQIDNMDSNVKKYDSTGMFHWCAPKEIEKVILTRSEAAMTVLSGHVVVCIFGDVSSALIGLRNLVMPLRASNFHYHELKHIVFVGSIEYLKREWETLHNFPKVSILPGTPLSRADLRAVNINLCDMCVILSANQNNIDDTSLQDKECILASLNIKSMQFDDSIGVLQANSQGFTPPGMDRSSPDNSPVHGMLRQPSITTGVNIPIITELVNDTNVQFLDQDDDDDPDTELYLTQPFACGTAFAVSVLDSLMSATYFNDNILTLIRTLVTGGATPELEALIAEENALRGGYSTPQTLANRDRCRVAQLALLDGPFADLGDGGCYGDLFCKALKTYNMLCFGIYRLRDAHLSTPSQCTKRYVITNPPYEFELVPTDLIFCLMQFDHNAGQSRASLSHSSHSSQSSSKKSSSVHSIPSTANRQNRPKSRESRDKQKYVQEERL

Structure (SMILES) | IC50 (human SLO3) [nM] | inhibition at 10 µM (human SLO3) [%] | other results
Cc1cc(Cl)cc2sc(O[C@@H]3CCN(C(=O)CCCS(=O)(=O)c4cccc(Br)c4)C[C@H]3F)nc12 [VU6047607] | 457 |  | 
Cc1cc(Cl)cc2sc(O[C@@H]3CCN(C(=O)CCCS(=O)(=O)c4cccc(Br)c4)C[C@@H]3F)nc12 [VU6047608] | 583 |  | 
Cc1cc(Cl)cc2sc(OC3CCN(C(=O)CCCS(=O)(=O)c4cccc(Br)c4)CC3F)nc12 (stereo not drawn) [VU6045330] | 135 |  | IC50 (hSLO1): 109000 nM; SLO1 selectivity (fold selective for SLO3) (hSLO1; SLO1 IC50 / hSLO3 IC50): 802 fold
Cc1cc(Cl)cc2sc(O[C@H]3CCN(C(=O)CCCS(=O)(=O)c4cccc(Br)c4)C[C@@H]3F)nc12 [VU6047609] | 112 |  | 
Cc1cc(Cl)cc2sc(O[C@H]3CCN(C(=O)CCCS(=O)(=O)c4cccc(Br)c4)C[C@H]3F)nc12 [VU6047606] | 43 | 100 | inhibition at 30 µM (hSLO1; HEK293, read-out: HEK hSLO1 % inhib. at 30 μM): 10%
O=C(c1ccc(OCc2ccc(OC(F)(F)F)cc2)cc1)N1CCN(c2ccc(C(F)(F)F)cn2)CC1 [VU6032735] | 165 | 100 | HEK hSLO1 % inhib. at 30 μM (hSLO1; 30 μM): No inhibition
